{"source": "paper PMC7412073", "about": "“Pharmacokinetics and Metabolism of Liposome-Encapsulated 2,4,6-Trihydroxygeranylacetophenone in Rats Using High-Resolution Orbitrap Liquid Chromatography Mass Spectrometry” (Molecules, 2020)", "key": {"[1]": {"experiment": "Metabolite identification in rat blood, urine and feces (UHPLC-MS/MS)", "format": "in vivo, Sprague-Dawley rats", "design": "key: B, U and F represent blood, urine and feces samples, respectively; B, U and F represent blood, urine and feces samples, respectively; B, U and F represent blood, urine and feces samples, respectively", "details": "rats dosed orally with 20 mg/kg liposomes-encapsulated tHGA, samples over 24 h", "description": "Groups 4 to 6 were used for single-dose drug metabolism study. Each rat was kept in individual metabolic cages. Urine and faeces were collected from each rat in the tHGA-treated group 4 and control group 5 at four different times over a period of 24 h. The samples were stored at −80 °C until further analysis. For the determination of plasma metabolites, blood was sampled from each rat in the control group 6, according to the same procedure as in the pharmacokinetic study. Blood samples collected from the tHGA-treated group 2 in the pharmacokinetics study were also used for the metabolism study.\nFor the drug metabolism study, for each rat, plasma samples collected over a period of 24 h were combined and tHGA was similarly extracted from the samples. For the urine samples, for each rat, samples collected over the 24 h period were combined and centrifuged for 15 min at 14,000 rpm. The supernatant was then vacuum-evaporated at 40 °C to a volume of 5 mL, after which, 30 mL methanol was added, the mixture sonicated for 25 min, followed by centrifuging at 10,000 rpm for 15 min. The supernatant was again vacuum-concentrated at 40 °C, to a volume of 5 mL, filtered through 0.45 μm membrane filter into an LC-MS vial and then injected (10 µL) to UHPLC-MS/MS system for spectral acquisition.\n[…] collected over 24 h was homogenized with distilled water in the ratio of 1 g to 3 mL and sonicated for 10 min. From this mixture, 3 mL was taken and mixed with 9 mL methanol. After that, the mixture was sonicated for 30 min and then centrifuged at 14,000 rpm for 15 min. The supernatant was taken to dryness using a rotary evaporator at 40 °C. The residue was then reconstituted in 1 mL ACN (80%), filtered through 0.45 μm membrane filter, and injected to the UHPLC-MS/MS system for acquisition of spectra.\nFor the identification of tHGA and its metabolites simultaneously, MS detection was operated under a heated electrospray ion source (H-ESI II) using positive/negative switching ionization mode to maximize metabolite coverage in every injection. The H-ESI parameters were optimized as follows: spray voltage (+) and (−) 4.2 and 3.5 kV respectively, capillary temperature 320 °C, S-lens RF level 55, sheath gas flow rate 45, auxiliary gas 10 and sweep gas 2 (manufacturer’s units). Nitrogen was used for the source, Orbitrap bath gas, and the higher energy collision dissociation (HCD) cell collision. The full-scan MS data were recorded across the mass range of 50–1500 m/z. The resolution was 70,000 (FWHM) at m/z 200, with automatic gain control (AGC) target of 1 × 10^6 ions and an auto maximum ion injection time (IT).\nAll MS data acquired using the Q Exactive MS were controlled by Xcalibur 4.0 software (Thermo Fisher Scientific). The MS data from plasma-, urine-, and feces-treated, as well as the control samples were analyzed using Compound Discoverer software 2.1 (Thermo Fisher Scientific) for the identification of tHGA metabolites. The software extracted information about metabolite m/z values depending on a list of expected metabolites. As no standards or literature information were available to confirm tHGA metabolites structure, tentative elucidation of the metabolites was performed according to Schymanski classification. A list of putative metabolites with the probable metabolism pathway was created for peaks based on MS, MS/MS fragmentation and the isotopic pattern of tHGA. The matching percentage between measured and theoretical MS/MS spectra was determined depending on the existence/absence of theoretical fragments in the MS/MS spectra generated experimentally. In addition, the site of metabolism was determined based on the tHGA structure with the help of a web server site for metabolism predictor [27, 28]."}, "[2]": {"experiment": "Single-dose pharmacokinetic study of free and liposome-encapsulated tHGA in rats (plasma, LC-HRMS)", "format": "in vivo, Sprague-Dawley rats", "details": "for Fr (relative oral bioavailability): PO 20 mg/kg relative to IP 20 mg/kg tHGA-loaded liposomes, rats", "description": "Thirty healthy male Sprague-Dawley (S.D.) rats, weighing between 180 and 225 g on the day of dosing, were kept in polypropylene cage base with stainless steel wire top clips for three days before the experiment. The living environment of the animals was controlled as follows: 12/12-h dark/light cycle, temperature maintained between 22 to 25 °C, daily feeding with commercial pellet food, and tap water. Rats were fasted 12 h before dosing and labeled with a designated number at the base of their tails. The rats were then randomly divided into six groups as follows: • Group 1 (n = 6) were dosed orally with 20 mg/kg of free tHGA. • Group 2 (n = 6) were dosed orally with 20 mg/kg of liposomes-encapsulated tHGA. • Group 3 (n = 6) were dosed intraperitoneally with 20 mg/kg of liposomes-encapsulated tHGA • Group 4 (n = 4) were dosed orally with 20 mg/kg of liposomes-encapsulated tHGA. • Group 5 (n = 4, control) were dosed orally with blank liposomes formulation (for urine and feces collection). • Group 6 (n = 4, control) were dosed orally with blank liposomes formulation (for blood collection).\nGroups 1 to 3 were used for the single-dose pharmacokinetic study. An aliquot of 200 µL of blood was drawn from each rat via the tail vein into polypropylene tubes containing a disodium K2EDTA solution (10%) as an anticoagulant at the pre-specified time points; at 0.25, 0.5, 1.5, 2, 4, 8 and 24 h for groups 1 and 2 after PO dose, and at 0.08, 0.5, 1.5, 2, 4, 8 and 24 h for group 3 after IP dose. Blood samples were centrifuged at 14,000 rpm at 20 °C for 10 min to separate the plasma which was then stored under −80 °C until further analysis. Animals were allowed to feed two hours after the first sample time point.\nFor the pharmacokinetic study, the same procedure used in the preparation of the standard solutions was used to extract tHGA from plasma samples.\nLC-MS analysis was performed using a Thermo Scientific™ Q Exactive™ Focus Hybrid Quadrupole-Orbitrap™ Mass Spectrometer (Thermo Fisher Scientific, Bremen, Germany) attached to a Thermo Scientific Dionex Ultimate 3000 Series RS pump coupled with a Thermo Scientific Dionex Ultimate 3000 Series TCC-3000RS column compartments and a Thermo Fisher Scientific Ultimate 3000 Series WPS-3000RS autosampler (Thermo Fisher Scientific, Sunnyvale, CA, USA) controlled by Xcalibur Software 4.0 (Thermo Fisher Scientific, Waltham, MA, USA). The chromatographic separation was carried out using a Hypersil GOLD C18 column (100 × 2.1 mm, 1.9 μm) (Thermo Fisher Scientific, Waltham, MA, USA) and the mobile phase consisted of water with 0.1% formic acid (solvent A) and acetonitrile with 0.1% formic acid (solvent B). Gradient elution was run at 0.3 mL/min, with 10% solvent B at the start (t = 0 min), increasing to 70% solvent B at t = 5 min. The gradient was then maintained for 3 min at 70% solvent B until t = 8 min before again increasing solvent B to 100% until the end of the run at t = 9.5 min. The temperature of the autosampler was set to 4 °C. For the metabolism study, the same chromatographic conditions were used with a different elution system. A linear gradient elution from 0% to 100% of solvent B for 45 min was used.\nMass spectrometric detection was operated under a heated electrospray ion source (H-ESI II) in negative ionization mode. The H-ESI parameters were optimized as follows: spray voltage 3.5 kV, capillary temperature 320 °C, S-lens RF level 55, sheath gas flow rate 45, auxiliary gas 10 and sweep gas 2 (manufacturer’s units). Nitrogen was used for the source, Orbitrap bath gas, and the higher energy collision dissociation (HCD) cell collision. A targeted SIM data-dependent MS/MS (tSIM/ddMS2) acquisition was used with an inclusion mass list containing m/z and retention time of tHGA. The resolution was 35,000 (FWHM) at m/z 200, with automatic gain control (AGC) target of 5 × 10^4 ions and an auto maximum ion injection time (IT). […]"}, "[3]": {"experiment": "Short- and long-term stability of tHGA in rat plasma QC samples", "format": "in vitro ADME", "details": "for Stability RE (%) Short-Term (4 °C): processed rat plasma sample, autosampler 4 °C, 24 h; for Stability RE (%) Short-Term (4 °C) / Stability RE (%) Long-Term (−80 °C): n = 6; for Stability RE (%) Long-Term (−80 °C): rat plasma, 1 month", "description": "Short- and long-term stability studies of tHGA in plasma was assessed using six replicates at two concentration levels, LQC and HQC. The QC samples were analyzed against the standard curve which was freshly prepared. The short-term stability was evaluated by analyzing the processed QC samples kept in the autosampler (4 °C) for 24 h. For long-term stability, tHGA plasma samples in low and high concentrations were stored at −80 °C for 1 month."}, "[4]": {"details": "PO, 20 mg/kg, male S.D rats, plasma, mean n = 6, listed as Free tHGA"}}, "note": "Where two headings read alike, the source gives them in different places.", "data": [{"compound": "CC(=O)c1c(O)cc(OS(=O)(=O)O)c(C(O)/C=C(\\C)CCC(O)=C(C)C)c1O", "note": "(stereo not drawn) [M9]", "values": [{"measurement": "Source (sample in which the metabolite was detected)", "setting": "[1]", "result": "B"}]}, {"compound": "CC(=O)c1c(O)cc(O)c(C/C=C(C)/C=C/C=C(C)C)c1O", "note": "[M7]", "values": [{"measurement": "Source (sample in which the metabolite was detected)", "setting": "[1]", "result": "F"}]}, {"compound": "CC(=O)c1c(O)cc(O)c(C/C=C(\\C)CCC=C(C)C)c1O", "note": "[tHGA, 2,4,6-trihydroxy-3-geranylacetophenone]", "values": [{"measurement": "Fr (relative oral bioavailability)", "setting": "[2]; listed as Free tHGA", "result": 9.07, "unit": "%"}, {"measurement": "Fr (relative oral bioavailability)", "setting": "[2]; listed as unformulated tHGA", "result": 9.1, "unit": "%"}, {"measurement": "Cmax", "setting": "[2]; [4]", "result": 5.35, "unit": "ng/mL"}, {"measurement": "t1/2 (elimination half-life)", "setting": "[2]; [4]", "result": 6.95, "unit": "h"}, {"measurement": "Tmax", "setting": "[2]; Sprague-Dawley, rat, PO, 20 mg/kg, male S.D rats, plasma, mean n = 6", "result": 0.25, "unit": "h"}, {"measurement": "AUC(0-t)", "setting": "[2]; male, Sprague-Dawley, rat, plasma, 20 mg/kg, oral administration, rats (unit as printed in abstract), read-out: AUC0–24", "result": 17.6, "unit": "ng·h/mL"}, {"measurement": "Cmax", "setting": "[2]; male, Sprague-Dawley, rat, plasma, po, 20 mg/kg, PO, male S.D rats, plasma, mean n = 6, read-out: Cmax", "result": 5.4, "unit": "ng/mL"}, {"measurement": "half-life", "setting": "[2]; male, Sprague-Dawley, rat, plasma, po, 20 mg/kg, PO, male S.D rats, plasma, mean n = 6, read-out: t1/2 (elimination half-life) (converted)", "result": 6.9, "unit": "h"}, {"measurement": "Stability RE (%) Short-Term (4 °C)", "setting": "[3]; 1.5 ng/mL tHGA (LQC)", "result": "−4.66 ± 11.9", "unit": "%"}, {"measurement": "Stability RE (%) Long-Term (−80 °C)", "setting": "[3]; 1.5 ng/mL tHGA (LQC)", "result": "5.93 ± 2.8", "unit": "%"}, {"measurement": "Stability RE (%) Short-Term (4 °C)", "setting": "[3]; 70 ng/mL tHGA (HQC)", "result": "5.34 ± 6.9", "unit": "%"}, {"measurement": "Stability RE (%) Long-Term (−80 °C)", "setting": "[3]; 70 ng/mL tHGA (HQC)", "result": "5.34 ± 5.1", "unit": "%"}, {"measurement": "long-term stability, accuracy", "setting": "[3]; LQC and HQC plasma samples, 1 month at −80 °C", "result": "5.3–5.9%"}]}, {"compound": "CC(=O)c1c(O)cc(O)c(C/C=C(\\C)CCC(O)C(C)(C)O)c1O", "note": "(stereo not drawn) [M10]", "values": [{"measurement": "Source (sample in which the metabolite was detected)", "setting": "[1]", "result": "F"}]}, {"compound": "CC(=O)c1c(O)cc(O)c(C/C=C(\\C)CCCC(C)(C)O)c1O", "note": "[M5]", "values": [{"measurement": "Source (sample in which the metabolite was detected)", "setting": "[1]", "result": "F"}]}, {"compound": "CC(=O)c1c(O)cc(O)c(C(O)/C=C(\\C)CCC(O)=C(C)C)c1O", "note": "(stereo not drawn) [M4]", "values": [{"measurement": "Source (sample in which the metabolite was detected)", "setting": "[1]", "result": "F"}]}, {"compound": "CC(=O)c1c(O)cc(O)c(C(O)/C=C(C)/C=C/C(O)=C(C)C)c1O", "note": "(stereo not drawn) [M6]", "values": [{"measurement": "Source (sample in which the metabolite was detected)", "setting": "[1]", "result": "F, B"}]}, {"compound": "CC(=O)c1c(O)cc(O)c(C(O)/C=C(\\C)CCC=C(C)C)c1O", "note": "(stereo not drawn) [M3]", "values": [{"measurement": "Source (sample in which the metabolite was detected)", "setting": "[1]", "result": "F, U"}]}, {"compound": "CC(=O)c1c(O)cc(O)c(C/C=C(\\C)CCC(O)=C(C)C)c1O", "note": "[M2]", "values": [{"measurement": "Source (sample in which the metabolite was detected)", "setting": "[1]", "result": "F, U"}]}]}
